Each structure is given as a SMILES string.

The experiment deals with T1, prostaglandin endo-peroxidesynthase (PGHS-1) (Ovis aries, UniProt P05979).
T1 construct: isolated from sheep seminal glands; purchased Cayman Chemical 60100; host or cells: sheep seminal glands (tissue-derived)
T1 sequence (P05979 25-600): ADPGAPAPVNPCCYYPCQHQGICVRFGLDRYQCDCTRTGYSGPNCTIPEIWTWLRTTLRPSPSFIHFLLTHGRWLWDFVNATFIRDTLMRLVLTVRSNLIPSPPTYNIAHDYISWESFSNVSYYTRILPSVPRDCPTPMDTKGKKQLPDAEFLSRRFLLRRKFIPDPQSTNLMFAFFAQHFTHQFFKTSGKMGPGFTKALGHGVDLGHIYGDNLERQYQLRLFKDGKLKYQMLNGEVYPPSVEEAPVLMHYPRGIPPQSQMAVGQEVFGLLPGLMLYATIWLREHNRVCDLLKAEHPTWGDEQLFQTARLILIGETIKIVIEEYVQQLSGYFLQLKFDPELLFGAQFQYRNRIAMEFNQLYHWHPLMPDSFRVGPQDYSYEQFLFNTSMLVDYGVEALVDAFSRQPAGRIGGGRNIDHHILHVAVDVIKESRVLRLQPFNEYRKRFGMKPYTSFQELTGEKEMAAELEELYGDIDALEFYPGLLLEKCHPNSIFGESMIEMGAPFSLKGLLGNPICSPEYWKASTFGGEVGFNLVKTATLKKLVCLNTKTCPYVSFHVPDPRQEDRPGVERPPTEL
Nature of the experiment: Measurement of the prostaglandin-endoperoxide synthase (PGHS-1) activating power (oxygen consumption, Clark electrode). The conditions noted are these: test compound 0.5 mM; oxidation of arachidonic acid, 37° C., pH 8.00; % relative to the values obtained with the control. It is filed as biochemical, sheep.
Method: The amount of oxygen required for the oxidation of arachidonic acid was measured by means of the cyclooxygenase activity of the prostaglandin-endo-peroxide synthase, in the presence or absence of the test compound.
The oxygen consumption measurements were taken using a Clark electrode connected to a YSI 5300 oxymeter marketed by Yellow Spring Instruments.
These measurements were taken in an open chamber with constant stirring at a temperature of 37° C.
If a graph recorder was used, the oxygen consumption measurement is expressed in the form of a curve, the maximum slope of which makes it possible to determine the initial rate of the reaction, and from which it is possible to calculate the period for which the initial reaction rate is maintained.
The curve thus obtained, in the absence of any substance other than the ingredients required for the enzymatic reaction, provides the basal activity of the enzyme. The initial rate and the period for which this rate is maintained can be determined under these conditions in a reaction comprising only the enzyme and its substrate.
The activity of the test compounds was measured under the same conditions, by adding the test compound to the reaction medium. The activity of the test compound with respect to cyclooxygenase was evaluated by means of the variation of the slope and the variation of the period for which the maximum rate was maintained.
A solution of 0.1 M Tris and 5 mM EDTA at pH=8.00 (TE solution) was prepared.
The substrate was formulated in the form of a stock solution of potassium arachidonate according to the supplier's procedure (Interchim, France).
The test compounds were prepared in the form of a stock solution with a titre of 5 mM, in a water/alcohol mixture (80/20) and were tested with the same batch of enzyme.
At t=0, 380 μl of TEA buffer preheated to 37° C. were introduced into the measuring chamber and maintained to equilibrate for at least one minute.
At t=1, 300 units of enzyme (PGHS) were introduced.
Recording was initiated, and the mixture was again permitted to stabilize for one minute. The recording obtained provided the reaction baseline.
After a further minute, 10 μl of substrate were introduced and the oxygen consumption was recorded for 2 to 3 minutes.
The initial reaction rate and the period for which this rate was maintained were thus determined.
The experimental conditions were identical to those above, except that the TEA buffer preheated to 37° C. was replaced by an identical buffer containing the test compound at a concentration of 0.5 mM.
The following results are expressed as a % relative to the values obtained with the control.
As to `CCCCCCNc1ccnc(N)[n+]1[O-]` [Example 1, 2-Amino-4-hexylaminopyrimidine 3-Oxide], the Activation result is “+37%”. As for `CCCCCCCCCCCCNc1ccnc(N)[n+]1[O-]` [Example 2, 2-Amino-4-dodecylaminopyrimidine 3-Oxide], the entry is “+11%”; as for `CCCCCCCCNc1ccnc(N)[n+]1[O-]` [Example 3, 2-Amino-4-octylaminopyrimidine 3-Oxide], “+14%”. For `CCCCCCCCNc1cc(OCCCC)nc(N)[n+]1[O-]` [Example 17, 2-Amino-4-octylamino-6-butyloxypyrimidine 3-Oxide] the value was “+8%”.

The values above are taken from patent publication US6653317B2, “Pyrimidine 3-oxide compounds for inducing/stimulating hair growth and/or retarding hair loss” (Societe l'Oreal S.A., priority 1998, dated 2003).
